Literature values in patent US7641924B2, “Nutritional composition for controlling blood sugar level” (Meiji Dairies Corporation, priority 2001, dated 2010).

Assays:
[1] = molecular target: isomaltase in the small intestine (Homo sapiens, UniProt P14410)
[2] = in vivo

Chain of isomaltase in the small intestine (P14410 whole entry): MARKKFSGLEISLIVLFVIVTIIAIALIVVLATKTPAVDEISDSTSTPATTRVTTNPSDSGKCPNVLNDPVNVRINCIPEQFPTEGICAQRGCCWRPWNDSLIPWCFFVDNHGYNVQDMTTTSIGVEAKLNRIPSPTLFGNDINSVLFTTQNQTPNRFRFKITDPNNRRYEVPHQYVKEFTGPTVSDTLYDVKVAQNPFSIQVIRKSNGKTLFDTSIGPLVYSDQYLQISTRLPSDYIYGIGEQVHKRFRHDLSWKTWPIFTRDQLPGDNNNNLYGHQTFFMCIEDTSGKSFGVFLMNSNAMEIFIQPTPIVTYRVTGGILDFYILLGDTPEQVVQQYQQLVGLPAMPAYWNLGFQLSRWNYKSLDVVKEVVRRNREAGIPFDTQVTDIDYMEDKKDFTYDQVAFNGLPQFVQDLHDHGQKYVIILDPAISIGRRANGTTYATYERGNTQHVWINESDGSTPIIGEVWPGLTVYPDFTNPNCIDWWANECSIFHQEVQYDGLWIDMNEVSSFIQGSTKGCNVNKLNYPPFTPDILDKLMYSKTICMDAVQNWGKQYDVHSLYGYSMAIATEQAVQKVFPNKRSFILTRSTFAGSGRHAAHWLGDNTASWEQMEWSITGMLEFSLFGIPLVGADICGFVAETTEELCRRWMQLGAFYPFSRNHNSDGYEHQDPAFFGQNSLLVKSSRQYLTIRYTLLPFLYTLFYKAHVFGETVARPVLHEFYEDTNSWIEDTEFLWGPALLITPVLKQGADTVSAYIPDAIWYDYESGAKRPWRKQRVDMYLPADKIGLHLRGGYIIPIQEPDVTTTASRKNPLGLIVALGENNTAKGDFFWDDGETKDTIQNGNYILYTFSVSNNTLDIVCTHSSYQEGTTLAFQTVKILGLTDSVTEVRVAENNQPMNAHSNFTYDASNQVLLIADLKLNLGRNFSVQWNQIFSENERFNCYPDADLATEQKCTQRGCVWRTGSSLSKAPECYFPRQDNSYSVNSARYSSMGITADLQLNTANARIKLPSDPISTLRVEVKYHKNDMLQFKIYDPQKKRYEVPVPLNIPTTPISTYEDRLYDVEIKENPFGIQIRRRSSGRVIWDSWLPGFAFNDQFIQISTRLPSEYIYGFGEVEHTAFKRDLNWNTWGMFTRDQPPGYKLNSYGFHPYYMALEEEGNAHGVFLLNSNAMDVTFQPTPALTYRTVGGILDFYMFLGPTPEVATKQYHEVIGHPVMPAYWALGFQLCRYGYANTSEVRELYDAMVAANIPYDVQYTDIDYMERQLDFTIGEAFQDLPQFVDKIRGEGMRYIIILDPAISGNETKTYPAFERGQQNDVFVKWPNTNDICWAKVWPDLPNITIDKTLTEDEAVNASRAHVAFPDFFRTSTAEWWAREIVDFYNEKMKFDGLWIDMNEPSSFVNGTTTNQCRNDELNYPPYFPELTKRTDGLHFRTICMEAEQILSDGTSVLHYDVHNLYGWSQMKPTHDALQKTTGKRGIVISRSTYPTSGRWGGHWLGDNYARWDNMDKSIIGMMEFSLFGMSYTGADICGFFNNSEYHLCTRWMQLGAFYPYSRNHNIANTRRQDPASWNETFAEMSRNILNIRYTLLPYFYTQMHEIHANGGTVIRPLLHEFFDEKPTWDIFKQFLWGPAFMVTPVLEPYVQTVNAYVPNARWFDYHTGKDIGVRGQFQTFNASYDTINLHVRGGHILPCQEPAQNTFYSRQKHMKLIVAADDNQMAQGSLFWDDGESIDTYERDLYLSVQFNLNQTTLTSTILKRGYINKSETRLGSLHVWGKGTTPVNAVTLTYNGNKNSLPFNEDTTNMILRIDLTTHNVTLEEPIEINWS

| Molecule | hydrolysis rate relative to that of sucrose [1] | blood glucose level after intake [2] | insulin level after intake [2] | hydrolysis rate relative to that of palatinose ([1]; small intestine) |
| --- | --- | --- | --- | --- |
| OC[C@H]1O[C@H](OC[C@H]2OC(O)(CO)[C@@H](O)[C@@H]2O)[C@H](O)[C@@H](O)[C@@H]1O (some centres unmarked) [palatinose, Palatinose] | one fifth | maintained at predetermined levels over many hours | maintained at predetermined levels over many hours | – |
| Trehalulose | one third | – | – | about 2 times |
